Laboratory results reported in patent US20210130291A1, “METHODS FOR TREATING DIABETES USING VDAC1 INHIBITORS” (THE NATIONAL INSTITUTE FOR BIOTECHNOLOGY IN THE NEGEV LTD., priority 2016, published 2021).

Tests used:
db/db mice = assay: Daily i.p. injection of VBIT-4 in db/db and C57/BL mice (blood glucose, IPGTT); type: in vivo, mouse
Description: 5 weeks old db/db mice and control (C57/bl) (Janvier Laboratory, France), weighing 18-25 g, were used throughout the experiments. They were given a standard pellet diet (B&K) and tap water ad libitum. The experimental procedures were approved by the Ethics Committee for Animal Research at Lund University. Isolation of pancreatic islets was performed by retrograde injection of a collagenase solution via the bile-pancreatic duct and islets were then collected under a stereomicroscope at room temperature.
IPGTTs were performed in db/db and c57/bl mice after treatment with VDAC1 blocker (daily intraperitoneal injection with VBIT-4, […]) for 5 weeks. Prior to IPGTT test, the mice were fasted for 4 h. Glucose was dissolved in 0.9% NaCl and 2.0 g glucose/kg body weight was injected intraperitoneally. Serial blood sampling thereafter from vena saphena was performed at 0, 5, 15, 30 and 90 min as previously described elsewhere 35. Blood glucose was analyzed using glucose oxidase method and plasma insulin was analyzed by ELISA (Salehi, A. et al. 2008. PLoS ONE 3, e2165; Rosengren, A. H. et al. 2010. Science 327, 217-220). Total volume load was 0.3 ml. The Cumulative (area under the curve) changes in plasma glucose or insulin were calculated by subtracting the recorded values from basal (time 0).

[1] = system: VDAC1 mRNA in human islets; assay: VDAC1 mRNA in non-diabetic human islets cultured under glucotoxic condition; type: cell-based; details: 72 h at 20 mM glucose, metformin 20 μM (FIG. 1d)
Description: Total RNA from handpicked mouse islets, human donor islets (Diabetic and non-diabetic) or [MUT] cells were extracted using RNAeasy (Qiagen, Hilden, Germany). […] Concentration and purity of total RNA was measured with a NanoDrop ND-1000 spectrophotometer (A260/A280>1.9 and A260/A230>1.4) (NanoDrop Technologies, Wilmington, Del.) and RNA Quality Indicator (RQI) higher than 8.0 (Experion Automated Electrophoresis, Bio-Rad, USA) was considered to be high-quality total RNA preparations. […] The qPCR was carried out as follows: 50° C. for 2 minutes, 95° C. for 10 minutes, 40 cycles of 95° C. for 15 seconds, and 60° C. for 1 minute. […] VDAC1 and VDAC2 mRNA and protein level were investigated by both qPCR and Western blotting relative to the expression of GAPDH and β-actin respectively.

plVDAC1 = target: T1, plVDAC1 (Mus musculus, UniProt Q60932); assay: Whole-cell patch-clamp membrane conductance in INS-1 cells; type: cell-based; details: superfusion with metformin 20 μM (FIG. 4f)
T1 construct: expressed in transfected cells; host or cells: INS-1 832/13 cells (rat insulinoma), transient transfection; plasmid a gift from Dr. R. Buettner
T1 sequence (Q60932 whole entry, the tested form may be a part): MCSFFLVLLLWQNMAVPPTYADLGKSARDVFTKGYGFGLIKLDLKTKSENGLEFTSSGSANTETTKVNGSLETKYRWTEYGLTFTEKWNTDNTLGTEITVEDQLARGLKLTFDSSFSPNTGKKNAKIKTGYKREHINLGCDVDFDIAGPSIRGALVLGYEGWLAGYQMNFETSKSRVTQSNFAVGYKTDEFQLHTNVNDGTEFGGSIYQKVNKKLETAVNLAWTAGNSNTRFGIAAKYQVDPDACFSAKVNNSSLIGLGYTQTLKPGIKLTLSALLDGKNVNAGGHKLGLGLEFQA
Description: Whole-cell currents in INS-1 832/13 cells were evoked and recorded by EPC10 amplifier and Pulse software (HEKA, Lambrecht/Pfalz, Germany) as previously described (Buda P. et al. 2013. PLoS One. 8(5):e64462) with the temperature maintained at 32° C. The cells were continuously perfused with extracellular solution containing 118 mM NaCl, 20 mM tetraethylammonium chloride, 5.6 mM KCl, 2.6 mM CaCl2), 1.2 mM MgCl2, 5 mM HEPES and 5 mM glucose (pH 7.4 with NaOH) in the presence of 100 μM tolbutamide (T0891, Sigma-Aldrich). The intracellular solution consisted of 125 mM Cs-glutamate, 10 mM CsCl, 10 mM NaCl, 1 mM MgCl2, 5 mM HEPES, 3 mM Mg-ATP, 0.1 mM cAMP and 0.05 mM EGTA (pH 7.2 with CsOH). […] Conductance was measured by applying 200-ms voltage ramps from −90 mV to −50 mV. […] Data presented are from […] after the addition when steady-state was reached.
Conductance measurements were performed after at least 5 minutes exposure, and the cell dish was replaced no later than after 1 hour of perfusion. No wash-out experiments were performed in this experiment.

human ND islets = assay: GSIS in non-diabetic human islets cultured at 5 or 20 mM glucose; type: cell-based
From the text: Human pancreatic islets were obtained through collaboration between Human Tissue Laboratory within Lund University Diabetes Centre (LUDC) and the Nordic Network for Clinical Islet Transplantation (Prof. Olle Korsgren, Uppsala University, Sweden). Donors were grouped according to HbA1c i.e. less than 6% (ND), between 6% and 6.5% (IGT), higher than 6.5% or history of diabetes (T2D). The human islets (70-90% purity) had been cultured in CMRL 1066 (ICN Biomedicals, Costa Mesa, Calif.) supplemented with 10 mM HEPES, 2 mM L-glutamine, […] gentamicin, […] fungizone (Gibco, BRL, Gaithersburg, Md.), 20 μg/ml ciprofloxacin (Bayer Healthcare, Leverkusen, Germany) and 10 mM nicotinamide at 37° C. (5% CO2) for 1 to 5 days prior to the arrival in the laboratory. The islets were then hand-picked under stereomicroscope prior to use. All procedures using human islets were approved by the ethical committees at Uppsala and Lund Universities, Sweden.
Human pancreatic islets were collected under a stereomicroscope at room temperature and cultured at 5.5 or 20 mM glucose in the absence or presence of test agents for 72 h. Thereafter the islets were washed and preincubated for 30 min at 37° C. in Krebs Ringer bicarbonate buffer, pH 7.4, supplemented with N-2 hydroxyethylpiperazine-N′-2-ethanesulfonic acid (10 mM), 0.1% bovine serum albumin, and 1 mM glucose. […]

[2] = system: VDAC1 in islets from T2D donors; assay: VDAC1 expression and localization in islets of T2D donors with documented metformin therapy; design: species or system human
Description: Donors were grouped according to HbA1c i.e. less than 6% (ND), between 6% and 6.5% (IGT), higher than 6.5% or history of diabetes (T2D). […] The islets were then hand-picked under stereomicroscope prior to use. […] Total RNA from handpicked mouse islets, human donor islets (Diabetic and non-diabetic) or [MUT] cells were extracted using RNAeasy (Qiagen, Hilden, Germany). […] Concentration and purity of total RNA was measured with a NanoDrop ND-1000 spectrophotometer (A260/A280>1.9 and A260/A230>1.4) (NanoDrop Technologies, Wilmington, Del.) and RNA Quality Indicator (RQI) higher than 8.0 (Experion Automated Electrophoresis, Bio-Rad, USA) was considered to be high-quality total RNA preparations. […] The qPCR was carried out as follows: 50° C. for 2 minutes, 95° C. for 10 minutes, 40 cycles of 95° C. for 15 seconds, and 60° C. for 1 minute. […] Isolated human or mouse islets as well as INS-1 cells were seeded on the glass-bottom dish cultured overnight. […] Primary antibodies against mouse VDAC1 (Abcam), goat VDAC2 (Abcam) and Guinea pig insulin (Eurodiagnostica) were diluted in blocking buffer and incubated overnight at 4° C. Immunoreactivity was quantified using fluorescently labeled secondary antibodies (1:200) and visualized by confocal microscopy (Carl Zeiss, Germany). The ratio is calculated by mean intensity of plasma membrane to mean intensity in cytosol, according to the formula:

elevated conductance in plVDAC1-transformed cells (plVDAC1)	membrane currents in control INS-1 cells (plVDAC1)	SMILES	effects in animals with severe diabetes (db/db mice; 14-week old db/db animals with severe diabetes, data not shown)	effects in control mice (db/db mice; C57/BL mice, daily i.p. VBIT-4 from age 6 to 11 weeks)	glucose tolerance (IPGTT, 2 g/kg) (db/db mice; db/db mice after 5 weeks VBIT-4 i.p. (FIG. 7g, 7h))	GSIS in vivo and in isolated islets (db/db mice; db/db mice after 5 weeks VBIT-4 i.p. (FIG. 7i, 7k, 7l))	blood glucose concentrations upon VBIT-4 cessation (db/db mice; db/db mice followed after 5 weeks treatment (FIG. 7f))	development of hyperglycemia (blood glucose) (db/db mice; db/db mice, daily i.p. 25 mg/kg from age 6 to 11 weeks, vs vehicle (FIG. 7f))	water consumption and urine production (db/db mice; db/db mice, early administration, data not shown)	VDAC1 mRNA [1]	GSIS after culture at 5 mM glucose (human ND islets; 72 h culture with agent (FIG. 6d))	GSIS after culture at 20 mM glucose (human ND islets; 72 h culture with agent, then 1 h at 1G or 16.7G (FIG. 6d))	islet VDAC1 mRNA ([2]; islets from T2D donors with documented metformin therapy (n=4))	VDAC1 localization in β-cells ([2]; single examined T2D donor with documented metformin therapy (FIG. 3a, 3b))
–	–	O=C(CC(CO)N1CCN(c2ccc(OC(F)(F)F)cc2)CC1)Nc1ccc(Cl)cc1 (racemic) [VBIT-4, N-(4-chlorophenyl)-4-hydroxy-3-(4-(4-(trifluoromethoxy)phenyl)-piperazin-1-yl)butanamide]	only marginal effects	no effects	markedly improved	markedly improved	rose gradually over several weeks	prevented the development of the severe hyperglycemia	prevented increases in water consumption and urine production	–	–	–	–	–
abrogating the elevated conductance	did not affect membrane currents	CN(C)C(=N)N=C(N)N [metformin]	–	–	–	–	–	–	–	prevented the increase in VDAC1 mRNA	unaffected	prevented the attenuation of GSIS	did not display elevated VDAC1 mRNA	remained intracellular
